In patent US12492188B2, “1H-benzo[D]imidazole derivatives as TLR9 inhibitors for the treatment of fibrosis” (BRISTOL-MYERS SQUIBB COMPANY, priority 2020, dated 2025):
Like-named read-outs stand apart in the source and are kept apart here.

Molecular target: T1, human TLR9 (Homo sapiens, UniProt Q9NR96)
T1 construct: host or cells: HEK-Blue cells (HEK293-derived reporter line)
T1 sequence (Q9NR96 26-1032): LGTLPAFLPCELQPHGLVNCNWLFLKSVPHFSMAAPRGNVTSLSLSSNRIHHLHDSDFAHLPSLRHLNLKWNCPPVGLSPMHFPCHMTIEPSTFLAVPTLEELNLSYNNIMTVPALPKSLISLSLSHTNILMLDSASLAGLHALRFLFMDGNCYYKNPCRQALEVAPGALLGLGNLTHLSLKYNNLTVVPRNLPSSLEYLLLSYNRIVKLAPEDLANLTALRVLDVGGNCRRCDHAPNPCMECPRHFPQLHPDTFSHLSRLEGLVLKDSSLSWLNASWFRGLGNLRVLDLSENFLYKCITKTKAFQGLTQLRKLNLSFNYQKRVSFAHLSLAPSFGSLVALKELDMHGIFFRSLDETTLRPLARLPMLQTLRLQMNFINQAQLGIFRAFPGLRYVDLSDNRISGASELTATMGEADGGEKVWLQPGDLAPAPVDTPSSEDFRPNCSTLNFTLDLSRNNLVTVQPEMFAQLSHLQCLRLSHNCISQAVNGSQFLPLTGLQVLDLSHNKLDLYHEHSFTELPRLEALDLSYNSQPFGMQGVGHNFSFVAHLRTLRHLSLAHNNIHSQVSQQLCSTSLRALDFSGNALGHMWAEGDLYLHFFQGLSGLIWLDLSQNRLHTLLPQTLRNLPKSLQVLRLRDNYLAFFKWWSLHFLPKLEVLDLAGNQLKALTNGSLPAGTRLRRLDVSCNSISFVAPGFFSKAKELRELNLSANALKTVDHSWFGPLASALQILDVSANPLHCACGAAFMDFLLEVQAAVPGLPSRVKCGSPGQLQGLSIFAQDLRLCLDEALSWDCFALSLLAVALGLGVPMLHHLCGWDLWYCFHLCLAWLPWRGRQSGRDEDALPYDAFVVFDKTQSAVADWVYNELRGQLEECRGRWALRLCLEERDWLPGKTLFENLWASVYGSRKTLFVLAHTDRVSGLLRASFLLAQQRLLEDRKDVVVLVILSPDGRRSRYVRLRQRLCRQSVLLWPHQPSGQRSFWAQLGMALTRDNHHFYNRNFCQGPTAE
Assay: TLR9 inhibition reporter assay (HEK-Blue cells, secreted embryonic alkaline phosphatase reporter)
Format: cell-based
Protocol: TLR7/8/9 Inhibition Reporter Assays
HEK-Blue™-cells (Invivogen) overexpressing human TLR7, TLR8 or TLR9 receptors were used for screening inhibitors of these receptors using an inducible SLAP (secreted embryonic alkaline phosphatase) reporter gene under the control of the […] minimal promoter fused to five NF-κB and AP-1-binding sites. Briefly, cells are seeded into Greiner 384 well plates (15000 cells per well for TLR7, 20,000 for TLR8 and 25,000 for TLR9) and then treated with test compounds in DMSO to yield a final dose response concentration range of 0.05 nM-50 μM. After a 30 minute compound pre-treatment at room temperature, the cells are then stimulated with a TLR7 ligand (gardiquimod at a final concentration of 7.5 μM), TLR8 ligand (R848 at a final concentration of 15.9 μM) or TLR9 ligand (ODN2006 at a final concentration of 5 nM) to activate NF-κB and AP-1 which induce the production of SLAP. After a 22 hour incubation at 37° C., […], SLAP levels are determined with the addition of HEK-Blue™ Detection reagent (Invivogen), a cell culture medium that allows for detection of SLAP, according to manufacturer's specifications. The percent inhibition is determined as the […] in the HEK-Blue signal present in wells treated with agonist plus DMSO alone compared to wells treated with a known inhibitor.

[1] = HEK-Blue cells overexpressing human TLR9, stimulated with ODN2006 5 nM, read-out: TLR 9 IC50
[2] = HEK-Blue cells overexpressing human TLR9, stimulated with ODN2006 5 nM, 22 hour incubation, reporter readout
[3] = HEK-Blue human TLR9 reporter cells

| Compound | IC50 | IC50 [1] | IC50 [2] | IC50 [3] |
| --- | --- | --- | --- | --- |
| Cc1cc(C2CCN(C3CCN(CC(C)C)CC3)CC2)cc2[nH]c(-c3cccc4ncsc34)nc12 [Example 77, 7-(6-(1′-isobutyl-[1,4′-bipiperidin]-4-yl)-4-methyl-1H-benzo[d]imidazol-2-yl)benzo[d]thiazole] | – | 31 nM | 31 nM | – |
| Cc1cc(C2CCN(C3CC4CCC(C3)N4C3CCC3)CC2)cc2[nH]c(-c3ccc(S(C)(=O)=O)c(F)c3)nc12 (centres unmarked) [Example 350, 6-(1-(8-cyclobutyl-8-azabicyclo[3.2.1]octan-3-yl)piperidin-4-yl)-2-(3-fluoro-4-(methylsulfonyl)phenyl)-4-methyl-1H-benzo[d]imidazole] | – | 55 nM | – | 55 nM |
| COc1ccc(-c2nc3ccc(C4CCN(C5CCN(CC(C)C)CC5)CC4)c(F)c3[nH]2)cc1OC [Example 133, 2-(3,4-dimethoxyphenyl)-7-fluoro-6-(1′-isobutyl-[1,4′-bipiperidin]-4-yl)-1H-benzo[d]imidazole] | 2200 nM | 2200 nM | – | – |
| Cc1c(C2CCN(C3CCN(CC(C)C)CC3)CC2)ccc2nc(-c3ccc(S(C)(=O)=O)cc3)n(C)c12 [Example 330, 6-(1′-isobutyl-[1,4′-bipiperidin]-4-yl)-1,7-dimethyl-2-(4-(methylsulfonyl)phenyl)-1H-benzo[d]imidazole] | – | 1390 nM | – | 1400 nM |
| Cc1cc(C2CCN(C3CCCN(CC4CCC4)CC3)CC2)cc2c1nc(-c1ccc(S(C)(=O)=O)cc1)n2C (centres unmarked) [Example 138, 6-(1-(1-(cyclobutylmethyl)azepan-4-yl)piperidin-4-yl)-1,4-dimethyl-2-(4-(methylsulfonyl)phenyl)-1H-benzo[d]imidazole] | 62 nM | 62 nM | – | – |
| CC(C)CN1CCC(N2CCC(c3ccc4nc(-c5ccc(S(C)(=O)=O)cc5)n(C5CC5)c4c3F)CC2)CC1 [Example 415, 1-cyclopropyl-7-fluoro-6-(1′-isobutyl-[1,4′-bipiperidin]-4-yl)-2-(4-(methylsulfonyl)phenyl)-1H-benzo[d]imidazole] | – | 65 nM | 65 nM | – |
| COc1cc(-c2nc3c(C)cc(C4CCN(C5CC6CCC(C5)N6C(C)C)CC4)cc3[nH]2)cn2ncnc12 (centres unmarked) [Example 362, 6-(6-(1-(8-isopropyl-8-azabicyclo[3.2.1]octan-3-yl)piperidin-4-yl)-4-methyl-1H-benzo[d]imidazol-2-yl)-8-methoxy-[1,2,4]triazolo[1,5-a]pyridine] | – | 152 nM | – | 150 nM |
| Cc1cc(C2CCN(C3CCN(CC(C)C)CC3)CC2)cc2[nH]c(-c3ccc(S(C)(=O)=O)c(Br)c3)nc12 [Example 67, 2-(3-bromo-4-(methylsulfonyl)phenyl)-6-(1′-isobutyl-[1,4′-bipiperidin]-4-yl)-4-methyl-1H-benzo[d]imidazole] | – | 44 nM | 44 nM | – |
| Cc1cc(C2CCN(C3CCN(CC(C)C)CC3)CC2)cc2[nH]c(-c3nccs3)nc12 [Example 79, 2-(6-(1′-isobutyl-[1,4′-bipiperidin]-4-yl)-4-methyl-1H-benzo[d]imidazol-2-yl)thiazole] | – | 111 nM | 110 nM | – |
| CN(C)C1CCN(Cc2ccc(-c3ccc4nc(-c5ccc(F)c(F)c5)n(C)c4c3)cc2)CC1 [Example 382, 1-(4-(2-(3,4-difluorophenyl)-1-methyl-1H-benzo[d]imidazol-6-yl)benzyl)-N,N-dimethylpiperidin-4-amine] | – | 3240 nM | 3.2 nM | – |
| Cc1cc2nc(-c3ccc(S(C)(=O)=O)cc3)n(C)c2cc1C1CCN(C2CCN(CC(C)C)CC2)CC1 [Example 331, 6-(1′-isobutyl-[1,4′-bipiperidin]-4-yl)-1,5-dimethyl-2-(4-(methylsulfonyl)phenyl)-1H-benzo[d]imidazole] | – | 143 nM | – | 140 nM |

Continued by falling IC50 [1], values first:

| IC50 | IC50 [1] | IC50 [2] | IC50 [3] | Compound |
| --- | --- | --- | --- | --- |
| 4400 nM | 4440 nM | – | – | Cc1cc(-c2ccc(N3CCN(CC(C)C)CC3)cc2)cc2c1nc(-c1ccc(S(C)(=O)=O)cc1)n2C [Example 170, 6-(4-(4-isobutylpiperazin-1-yl)phenyl)-1,4-dimethyl-2-(4-(methylsulfonyl)phenyl)-1H-benzo[d]imidazole] |
| 1100 nM | 1110 nM | – | – | COCCN1CCN(c2ccc(-c3cc(C)c4nc(-c5ccc(S(C)(=O)=O)cc5)n(C)c4c3)cc2)CC1 [Example 173, 6-(4-(4-(2-methoxyethyl)piperazin-1-yl)phenyl)-1,4-dimethyl-2-(4-(methylsulfonyl)phenyl)-1H-benzo[d]imidazole] |
| – | 358 nM | 360 nM | – | Cc1cc(C2CCN(C3CCN(CC(C)C)CC3)CC2)cc2[nH]c(-c3ccccc3OC(F)(F)F)nc12 [Example 80, 6-(1′-isobutyl-[1,4′-bipiperidin]-4-yl)-4-methyl-2-(2-(trifluoromethoxy)phenyl)-1H-benzo[d]imidazole tris(2,2,2-trifluoroacetate)] |
| 250 nM | 248 nM | – | – | Cc1cc(C2CCN(C3CC4(C3)CN(CC(C)C)C4)CC2)cc2c1nc(-c1ccc(S(C)(=O)=O)cc1)n2C [Example 141, 6-(1-(2-isobutyl-2-azaspiro[3.3]heptan-6-yl)piperidin-4-yl)-1,4-dimethyl-2-(4-(methylsulfonyl)phenyl)-1H-benzo[d]imidazole] |
| 200 nM | 202 nM | – | – | COc1ccc(-c2nc3ccc(C4CCN(C5CCN(C(C)C)CC5)CC4)c(F)c3[nH]2)cc1OC [Example 132, 2-(3,4-dimethoxyphenyl)-7-fluoro-6-(1′-isopropyl-[1,4′-bipiperidin]-4-yl)-1H-benzo[d]imidazole] |
| – | 178 nM | 180 nM | – | Cc1cc2nc(-c3ccc(S(C)(=O)=O)cc3)n(C)c2cc1C1CCN(C2CCN(C(C)C)CC2)CC1 [Example 120, 6-(1′-isopropyl-[1,4′-bipiperidin]-4-yl)-1,5-dimethyl-2-(4-(methylsulfonyl)phenyl)-1H-benzo[d]imidazole] |
| – | 140 nM | 140 nM | – | CN(C)C1CCN(Cc2ccc(-c3ccc4nc(-c5cc(F)cc(F)c5)n(C)c4c3)cc2)CC1 [Example 381, 1-(4-(2-(3,5-difluorophenyl)-1-methyl-1H-benzo[d]imidazol-6-yl)benzyl)-N,N-dimethylpiperidin-4-amine] |
| – | 88 nM | 88 nM | – | Cc1cc(C2CCN(C3CCN(CC(C)C)CC3)CC2)cc2[nH]c(-c3cccc4ncccc34)nc12 [Example 72, 5-(6-(1′-isobutyl-[1,4′-bipiperidin]-4-yl)-4-methyl-1H-benzo[d]imidazol-2-yl)quinoline tris(2,2,2-trifluoroacetate)] |
| – | 44 nM | 44 nM | – | CC(C)N1CC2(CN(Cc3ccc(-c4cc(F)c5nc(-c6ccc(S(C)(=O)=O)cc6)n(C6CC6)c5c4)cc3)C2)C1 [Example 410, 1-cyclopropyl-4-fluoro-6-(4-((6-isopropyl-2,6-diazaspiro[3.3]heptan-2-yl)methyl)phenyl)-2-(4-(methylsulfonyl)phenyl)-1H-benzo[d]imidazole] |
| – | 32 nM | 32 nM | – | Cc1cc(C2CCN(C3CCN(CC(C)C)CC3)CC2)cc2[nH]c(-c3cccc4cccnc34)nc12 [Example 82, 8-(6-(1′-isobutyl-[1,4′-bipiperidin]-4-yl)-4-methyl-1H-benzo[d]imidazol-2-yl)quinoline] |
| 22 nM | 22 nM | – | – | COc1ccc(-c2nc3cc(F)c(C4CCN(C5CCN(CC(C)C)CC5)CC4)cc3[nH]2)cc1OC [Example 130, 2-(3,4-dimethoxyphenyl)-5-fluoro-6-(1′-isobutyl-[1,4′-bipiperidin]-4-yl)-1H-benzo[d]imidazole] |
